Data as given in US11654199B2 (BOLT BIOTHERAPEUTICS, INC., priority 2019, dated 2023).

Tests used:
human TLR8 = molecular target: T1, human TLR8 (Homo sapiens, UniProt Q9NR97); assay: HEK293 NFKB reporter assay, human TLR8; format: cell-based; details: HEK293 NFKB reporter cells expressing human TLR8; read-out: HEK293 hTLR8 EC50
T1 construct: host or cells: HEK293 reporter cells
T1 sequence (Q9NR97 27-1041): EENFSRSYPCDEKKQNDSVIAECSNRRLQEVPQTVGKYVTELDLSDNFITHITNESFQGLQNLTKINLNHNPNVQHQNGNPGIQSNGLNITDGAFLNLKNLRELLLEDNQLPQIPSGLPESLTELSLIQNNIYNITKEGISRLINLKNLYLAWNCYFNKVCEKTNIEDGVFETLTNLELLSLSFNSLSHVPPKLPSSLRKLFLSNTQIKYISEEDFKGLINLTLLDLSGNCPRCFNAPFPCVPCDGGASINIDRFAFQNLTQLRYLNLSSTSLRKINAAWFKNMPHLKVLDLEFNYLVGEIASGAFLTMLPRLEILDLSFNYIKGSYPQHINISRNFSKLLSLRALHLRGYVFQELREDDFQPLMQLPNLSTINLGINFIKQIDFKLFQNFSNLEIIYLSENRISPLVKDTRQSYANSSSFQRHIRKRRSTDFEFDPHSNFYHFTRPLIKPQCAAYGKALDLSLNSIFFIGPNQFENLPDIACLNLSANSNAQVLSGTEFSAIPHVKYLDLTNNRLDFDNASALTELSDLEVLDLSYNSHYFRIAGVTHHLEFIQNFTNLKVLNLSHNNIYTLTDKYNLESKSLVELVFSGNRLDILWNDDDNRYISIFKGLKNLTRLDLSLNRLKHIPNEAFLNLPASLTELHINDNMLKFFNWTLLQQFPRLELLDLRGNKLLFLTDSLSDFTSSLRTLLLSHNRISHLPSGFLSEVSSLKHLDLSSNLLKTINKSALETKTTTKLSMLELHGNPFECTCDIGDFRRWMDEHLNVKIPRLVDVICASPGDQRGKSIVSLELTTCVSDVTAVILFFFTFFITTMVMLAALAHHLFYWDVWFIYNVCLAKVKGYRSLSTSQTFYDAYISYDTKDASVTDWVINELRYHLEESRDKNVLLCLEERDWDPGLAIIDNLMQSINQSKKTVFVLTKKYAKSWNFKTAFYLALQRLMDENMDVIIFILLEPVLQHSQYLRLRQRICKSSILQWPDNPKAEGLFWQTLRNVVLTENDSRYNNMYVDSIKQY
Summary of the method: (§1)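 HEK293 NF-κB reporter cells expressing human TLR7 or TLR8 were seeded at 4×10^4 cells/well in HEK detection medium containing the stimulatory molecules. Reporter activity was read by absorbance at 620-655 nm.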

human TLR7 = molecular target: T2, human TLR7 (Homo sapiens, UniProt Q9NYK1); assay: HEK293 NFKB reporter assay, human TLR7; format: cell-based; details: HEK293 NFKB reporter cells expressing human TLR7; read-out: HEK293 hTLR7 EC50
T2 construct: host or cells: HEK293 reporter cells
T2 sequence (Q9NYK1 27-1049): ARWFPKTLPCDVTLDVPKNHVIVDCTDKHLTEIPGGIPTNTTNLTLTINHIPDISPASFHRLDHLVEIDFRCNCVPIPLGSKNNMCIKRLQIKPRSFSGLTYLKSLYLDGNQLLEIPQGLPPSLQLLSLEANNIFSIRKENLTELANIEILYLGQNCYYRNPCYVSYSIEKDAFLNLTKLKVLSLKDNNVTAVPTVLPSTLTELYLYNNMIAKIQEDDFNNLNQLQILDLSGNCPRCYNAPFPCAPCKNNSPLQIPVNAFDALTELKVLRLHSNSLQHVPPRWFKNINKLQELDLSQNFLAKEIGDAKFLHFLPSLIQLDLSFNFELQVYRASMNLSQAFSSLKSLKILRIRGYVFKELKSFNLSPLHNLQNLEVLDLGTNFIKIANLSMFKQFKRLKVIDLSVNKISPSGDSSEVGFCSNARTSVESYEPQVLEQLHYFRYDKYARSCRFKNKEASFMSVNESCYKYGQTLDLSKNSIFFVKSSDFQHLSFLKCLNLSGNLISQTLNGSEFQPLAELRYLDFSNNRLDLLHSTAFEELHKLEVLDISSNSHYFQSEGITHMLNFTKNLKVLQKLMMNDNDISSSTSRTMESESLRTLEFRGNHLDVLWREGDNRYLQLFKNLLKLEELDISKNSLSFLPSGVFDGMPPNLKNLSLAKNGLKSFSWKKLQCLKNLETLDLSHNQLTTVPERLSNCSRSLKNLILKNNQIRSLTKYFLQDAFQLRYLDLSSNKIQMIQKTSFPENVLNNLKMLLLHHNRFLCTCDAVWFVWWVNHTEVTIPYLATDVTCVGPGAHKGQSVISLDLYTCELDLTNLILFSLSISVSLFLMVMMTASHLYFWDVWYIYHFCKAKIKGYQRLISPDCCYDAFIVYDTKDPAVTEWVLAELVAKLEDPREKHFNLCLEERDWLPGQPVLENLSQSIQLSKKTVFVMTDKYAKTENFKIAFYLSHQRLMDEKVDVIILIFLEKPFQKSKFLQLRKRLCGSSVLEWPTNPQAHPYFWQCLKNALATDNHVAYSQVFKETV
Summary of the method: as §1

| Structure (SMILES) | EC50 (human TLR8) | EC50 (human TLR7) |
| --- | --- | --- |
| CCCN(CCCNC(=O)OC1CCC1)C(=O)C1=Cc2sc(CN3Cc4ccc(NC(=O)CCN)cc4C3)cc2N=C(N)C1 [TAZ-189] | 3390 nM | 5720 nM |
| CCCN(CCCNC(=O)OC1CCC1)C(=O)C1=Cc2sc(CN3CCC(Nc4ccc(CN)cc4)C3)cc2N=C(N)C1 (centres unmarked) [TAZ-190] | 4800 nM | 2990 nM |
| CCCN(CCCNC(=O)OC1CCC1)C(=O)C1=Cc2sc(C#CC3CNC3)cc2N=C(N)C1 [TAZ-192] | 3480 nM | 824 nM |
| CCCN(OCC)C(=O)C1=Cc2sc(C#CC3CNC3)cc2N=C(N)C1 [TAZ-193] | 1520 nM | 3360 nM |
| CCCN(OCC)C(=O)C1=Cc2sc(CCC3CN(C(=O)OC(C)(C)C)C3)cc2N=C(N)C1 [TAZ-194] | 631 nM | 467 nM |
| CCCN(OCC)C(=O)C1=Cc2sc(CCC3CNC3)cc2N=C(N)C1 [TAZ-195] | 953 nM | 6600 nM |
| CCCN(OCC)C(=O)C1=Cc2sc(CCC3(O)CN(C(=O)OC(C)(C)C)C3)cc2N=C(N)C1 [TAZ-199] | 1610 nM | 31 nM |
| CCCN(OCC)C(=O)C1=Cc2sc(CCC3(O)CNC3)cc2N=C(N)C1 [TAZ-200] | 4070 nM | 2920 nM |
| CCCN(OCC)C(=O)C1=Cc2sc(CN3Cc4ccc(NC(=O)CCNC(=O)OC(C)(C)C)cc4C3)cc2N=C(N)C1 [TAZ-202] | 1370 nM | 3680 nM |
| CCCN(CCCNC(=O)OC1CCC1)C(=O)C1=Cc2sc(CNC(=O)c3ccccc3)cc2N=C(N)C1 [TAZ-203] | 3250 nM | 3260 nM |
| CCCN(CCCNC(=O)OC1CCC1)C(=O)C1=Cc2sc(CNC(=O)Cc3ccccc3)cc2N=C(N)C1 [TAZ-204] | 2550 nM | 2670 nM |
| CCCN(OCC)C(=O)C1=Cc2sc(CN3CC4(C3)CN(C(=O)OC(C)(C)C)C4)cc2N=C(N)C1 [TAZ-208] | 8510 nM | 3610 nM |
| CCCN(OCC)C(=O)C1=Cc2sc(CN3CC(CNC(=O)OC(C)(C)C)C3)cc2N=C(N)C1 [TAZ-210] | 2940 nM | 1550 nM |
| CCCN(OCC)C(=O)C1=Cc2sc(CN3CC(C(=O)OC(C)(C)C)C3)cc2N=C(N)C1 [TAZ-212] | 2540 nM | 1260 nM |
| CCCN(OCC)C(=O)C1=Cc2sc(CN3CC4(C3)CN(c3ccc(C)cc3)C4)cc2N=C(N)C1 [TAZ-219] | 847 nM | 3200 nM |
| CCCN(OCC)C(=O)C1=Cc2sc(-c3cn[nH]c3)cc2N=C(N)C1 [TAZ-221] | 6700 nM | 6120 nM |
| CCCN(OCC)C(=O)C1=Cc2sc(CN3CCC(C(=O)OC)CC3)cc2N=C(N)C1 [TAZ-222] | 2830 nM | 4890 nM |

| Structure (SMILES) | EC50 (human TLR8) | EC50 (human TLR7) |
| --- | --- | --- |
| CCCN(OCC)C(=O)C1=Cc2sc(CN3CCC[C@@H](C(=O)OC)C3)cc2N=C(N)C1 [TAZ-223] | 3140 nM | 3800 nM |
| CCCN(OCC)C(=O)C1=Cc2sc(CN3CCNC(=O)C3)cc2N=C(N)C1 [TAZ-224] | 2720 nM | 3410 nM |
| CCCN(OCC)C(=O)C1=Cc2sc(CN3CCCNCC3)cc2N=C(N)C1 [TAZ-225] | 1210 nM | 2560 nM |
| CCCN(OCC)C(=O)C1=Cc2sc(CN3CCCN(C(=O)OC(C)(C)C)CC3)cc2N=C(N)C1 [TAZ-226] | 4430 nM | 436 nM |
| CCCN(OCC)C(=O)C1=Cc2sc(CN3CC[C@H]4NC[C@H]4C3)cc2N=C(N)C1 [TAZ-227] | 2290 nM | 4390 nM |
| CCCN(OCC)C(=O)C1=Cc2sc(CN3CC[C@@H]4[C@H](C3)CN4C(=O)OC(C)(C)C)cc2N=C(N)C1 [TAZ-228] | 3240 nM | 3760 nM |
| CCCN(OCC)C(=O)C1=Cc2sc(CN3CCC(N)C3)cc2N=C(N)C1 (centres unmarked) [TAZ-234] | 361 nM | 3330 nM |
| CCCN(OCC)C(=O)C1=Cc2sc(CC3CCNC3)cc2N=C(N)C1 (centres unmarked) [TAZ-236] | 423 nM | 2220 nM |
| CCCN(OCCNC(=O)OC1CCC1)C(=O)C1=Cc2sc(CC3CNC3)cc2N=C(N)C1 [TAZ-238, cyclobutyl N-[2-[[5-amino-2-(azetidin-3-ylmethyl)-6H-thieno[3,2-b]azepine-7-carbonyl]-propyl-amino]oxyethyl]carbamate] | 286 nM | 112 nM |
| CCCN(OCC)C(=O)C1=Cc2sc(CN3CCC4(CCNC4)CC3)cc2N=C(N)C1 [TAZ-240] | 5460 nM | 4250 nM |
| CCCN(OCC)C(=O)C1=Cc2sc(CN3CC4CCC(C3)N4C(=O)OC(C)(C)C)cc2N=C(N)C1 [TAZ-241] | 3060 nM | 2810 nM |
| CCCN(OCC)C(=O)C1=Cc2sc(CCCN3CCNCC3)cc2N=C(N)C1 [TAZ-244] | 146 nM | 2460 nM |
| CCCN(OCC)C(=O)C1=Cc2sc(CN3CC4CCC(C3)N4)cc2N=C(N)C1 [TAZ-245] | 145 nM | 5020 nM |
| CCCN(OC(C)C)C(=O)C1=Cc2sc(CC3CN(C(=O)OC(C)(C)C)C3)cc2N=C(N)C1 [TAZ-249] | 640 nM | 362 nM |
| CCCN(OCC)C(=O)C1=Cc2sc(CC3CN(C(C)=O)C3)cc2N=C(N)C1 [TAZ-252] | 868 nM | 4450 nM |
| CCCN(OC(C)C)C(=O)C1=Cc2sc(CC3CNC3)cc2N=C(N)C1 [TAZ-253, 5-amino-2-(azetidin-3-ylmethyl)-N-isopropoxy-N-propyl-6H-thieno[3,2-b]azepine-7-carboxamide] | 192 nM | 7170 nM |
| CCON(C(=O)C1=Cc2sc(CC3CN(C(=O)OC(C)(C)C)C3)cc2N=C(N)C1)C(C)CC (centres unmarked) [TAZ-254] | 8270 nM | 8130 nM |
